# Measured values reported in patent US20120264159A1, “SCREENING SYSTEM FOR MODULATORS OF HER2 MEDIATED TRANSCRIPTION AND HER2 MODULATORS IDENTIFED THEREBY” (BUCK INSTITUTE FOR AGE RESEARCH, priority 2001, published 2012).
# Starred links: 1 amine or outer side, 2 acyl side, 3 side chain; linkers in the order of their positions; H or OH if unused. Positions of bridges follow the written chain, without caps; N, C: chain ends. Non-standard residues stand in square brackets, D forms with d. Residues, ends and D or L forms follow the SMILES beside them. Chains are numbered I, II in the order given. Actinocin(9to1) = Cc1c2oc3c(C)ccc(C(=O)[*:1])c3nc-2c(C(=O)[*:2])c(N)c1=O; NMeV = CN[C@H](C(=O)O)C(C)C; Sar = CNCC(=O)O
# Experiments:
# BT-474 cells = test: In vitro antitumor activity against ErbB2-amplified BT-474 cells; type: cell-based
# Experimental: FIG. 9 illustrates validation of NSC-176328 antitumor selectivity. ErbB2-positive human cancer cells are 8.5-fold more sensitive to NSC-176328 than a panel of ErbB2-negative cancer cells. In vitro antitumor activity against ErbB2-amplified BT-474 cells of free and liposome- or immunoliposome-encapsulated Ellipticine (NSC-176328). 6-3-aminopropylellipticine (AE; NSC 176328) was administered to cell cultures as free drug or after being encapsulated into liposomes (L-AE) or immunoliposomes (ILS-AE); the former prevent escape and cell exposure to free AE, the latter specifically internalize into and release AE within ErbB2 overexpressing tumor cells.
# [1] = test system: NCI panel of 60 human cancer cell lines; settings: free drug, cell lines not overexpressing ErbB2; cited from earlier work
# ErbB2 transcript = test: Northern blot of ErbB2 transcript levels in ErbB2 overexpressing breast cancer cells; type: cell-based, human
# Experimental: The conserved and singular DNase I hypersensitivity sites found in the proximal ErbB2 and ESX promoters (12,15) were assayed as before (12). Briefly, following culture treatment of cells, nuclei isolated by mild detergent lysis in a buffer containing 10 mM Hepes pH 7.9, 1.5 mM MgCl2, 10 mM KCl, 0.4% NP-40, 10% glycerol and 1 mM DTT. Partial DNase I digestions were carried out by varying DNase I treatment times (0-15 minutes at 37( ) at a fixed DNase I concentrations (0.5-1.0 units per 10^6 nuclei). After purifying and restricting the DNA, it was electrophoresed through 0.7% agarose gels and blotted onto nylon membranes, UV-crosslinked and hybridized with randomly ^32P-labelled ErbB2 and ESX promoter probes, as similarly performed for routine Southern blotting. For Northern blotting, total (treated vs. control) cell RNA (10 μg/sample lane) was isolated using TRIzol (Invitrogen) according to manufacturer's specifications, electrophoresed into 1% agarose-formaldehyde gels and transferred onto membranes that were then hybridized with ^32P-labelled ErbB2 and ESX cDNA probes. For transcriptional run-off assays cell nuclei were first isolated from treated and control cells as described for the DNase I studies. Elongatation of initiated nascent RNA chains was performed at 37 (C for 30 minutes using ˜5×10^6 nuclei per reaction in a buffer containing 10 mM Tris pH7.5, 2.5 mM MgCl2, 150 mM KCl, 1 mM DTT, 10% glycerol, 0.5 mM ATP, GTP and CTP, and 100 μCi of [α-^32P]UTP (800 Ci/mmol). Nuclear RNA was purified by the addition of 100 units of RNase-free DNase I (Roche) per reaction for 2 minutes followed by TRIzol processing. Radiolabelled RNA was hybridized (˜4×10^6 cpm) at 68 (C in ExpressHyb (Clontech) for 24 hours to nylon filter membranes previously slotted with 0.5 μg per slot of unlabelled ErbB2 cDNA fragments (from either the transmembrane or C-terminal domains), ESX cDNA fragments, and empty plasmid control, as we have previously described (16). Filters were washed at 64 (C in 0.2 SSC and 0.5% SDS. For Western blotting, whole-cell extracts from control vs. treated cells were boiled in sample loading buffer (1% SDS, 20% glycerol, 100 mM DTT, 50 mM Tris, pH 6.8), gel lanes loaded for constant total protein (15 μg), electrophoresed into 9% sodium dodecyl sulfacte polyacrylamide (SDS-PAGE) gels, transferred onto membranes (Immobilon-P, Millipore), and the protein-bound membranes hybridized with a primary antibody followed by a horseradish peroxidase-conjugated secondary antibody (Sigma), and specific protein bands visualized by chemiluminescent substrate (Pierce), as previously described (10).
# ESX transcript = test: Northern blot of ESX transcript levels in SKBR3 cells; type: cell-based, human; settings: 5 hours Act D
# Experimental: The conserved and singular DNase I hypersensitivity sites found in the proximal ErbB2 and ESX promoters (12,15) were assayed as before (12). Briefly, following culture treatment of cells, nuclei isolated by mild detergent lysis in a buffer containing 10 mM Hepes pH 7.9, 1.5 mM MgCl2, 10 mM KCl, 0.4% NP-40, 10% glycerol and 1 mM DTT. Partial DNase I digestions were carried out by varying DNase I treatment times (0-15 minutes at 37( ) at a fixed DNase I concentrations (0.5-1.0 units per 10^6 nuclei). After purifying and restricting the DNA, it was electrophoresed through 0.7% agarose gels and blotted onto nylon membranes, UV-crosslinked and hybridized with randomly ^32P-labelled ErbB2 and ESX promoter probes, as similarly performed for routine Southern blotting. For Northern blotting, total (treated vs. control) cell RNA (10 μg/sample lane) was isolated using TRIzol (Invitrogen) according to manufacturer's specifications, electrophoresed into 1% agarose-formaldehyde gels and transferred onto membranes that were then hybridized with ^32P-labelled ErbB2 and ESX cDNA probes. For transcriptional run-off assays cell nuclei were first isolated from treated and control cells as described for the DNase I studies. […]
# RO6 HER2 promoter [2] = test: Basal promoter activity of MCF-7b stable RO6 populations; type: cell-based, human; settings: 10 nM, 24 hours, serum-free media, clone and polyclonal populations
# Experimental: (§1) Parental cell lines MCF-7, and MDA-453 were transfected with the construct Ro6pGL (FIG. 2) in conjunction with pcMneo construct using lipid-based transfection (Effectene) at a ratio of 20:1 reporter:selectable marker (see, FIG. 4). Monoclonal and polyclonal populations were selected in 0.5 mg/ml G418 over 2 to 4 weeks.
# (§2) Reporter activity was assayed as follows: From T-150 or T-75 culture flasks, about […] cells/well were plated into a 96 well plate format for high-throughput screening. 24 hours post plating a test agent e.g. a drug from a combinatorial library, was added to the wells at various concentrations. Certain wells were used as controls (e.g. PBS or DMSO vehicle only). Replicate wells ([…] per drug concentration) were run. 24 hours after addition of the test agent the cells were lysed, a luciferase reagent was added and activity in each well was read using a high-throughput screening plate reader (labsystems Fluoroskan). Parallel plates were run for cell viability using an MTT assay (Sigma).
# RO6 HER2 promoter [3] = test: Basal promoter activity of MDA-453 stable RO6 polyclonal populations; type: cell-based, human; settings: 10 nM TPA in DMSO, 8 and 48 hr, presence of serum, compared with DMSO only
# Experimental: as §1
# as §2, with “24 hours after addition of the test agent the cells were lysed, a luciferase reagent was added and activity in each well was read using a high-throughput screening plate reader (labsystems Fluoroskan).” left out
# ErbB2 promoter = test: Genomically integrated ErbB2 promoter-luciferase reporter screen in MCF/R06pGL-9 cells; type: cell-based, human; settings: 24 h treatment
# Experimental: as §2
# A luciferase reporter plasmid (designated RO6pGL-luc) was constructed by inserting the ˜500 bp SmaI-SmaI fragment of the human ErbB2 proximal promoter (12) into the pGL3Basic plasmid driving a luciferase reporter gene, as has been described (10). R06pGL-luc and a plasmid expressing neomycin phosphotransferase were co-transfected into the MCF-7 cells (ATCC) using Effectene (Qiagen). Cells were selected for stable expression of luciferase and neomycin (G418)-resistance. […] The reaction was quantified by absorbance at 570 nm measured with a microplate reader (Molecular Devices) and the mean (±SD) optical density recorded after normalization by the vehicle treated controls. […]
compound,measurement,setting,value
"Cc1c2cnccc2c(C)c2c1c1ccccc1n2CCCN [AE, 6-3-aminopropylellipticine]",sensitivity of ErbB2-positive vs ErbB2-negative cancer cells,BT-474 cells; BT-474 vs NCI panel of ErbB2-negative cancer cells,8.5 fold
same,LC50,"BT-474 cells; free drug, ErbB2 overexpressing BT-474 cells",200 mg/L
same,average LC50,[1],1700 mg/L
"Cc1c2oc3c(C)ccc(C(=O)N[C@@H]4C(=O)N[C@H](C(C)C)C(=O)N5CCC[C@H]5C(=O)N(C)CC(=O)N(C)[C@@H](C(C)C)C(=O)O[C@@H]4C)c3nc-2c(C(=O)N[C@@H]2C(=O)N[C@H](C(C)C)C(=O)N3CCC[C@H]3C(=O)N(C)CC(=O)N(C)[C@@H](C(C)C)C(=O)O[C@@H]2C)c(N)c1=O [Act D, actinomycin D] (I: T[dV]P[Sar][NMeV] / II: T[dV]P[Sar][NMeV]; ester I:1-I:C, II:1-II:C; linker I:N-II:N via Actinocin(9to1))",ErbB2 mRNA level / decay,"ErbB2 transcript; SKBR3 cells, 5 hours treatment, TSA 0.05 or 0.40 μM, Act D 10 μg/ml",only a slight reduction in ErbB2 mRNA level
same,ESX mRNA level,ESX transcript,complete loss of the short-lived ESX mRNA
CCCCCCCCCCCCCC(=O)O[C@@H]1[C@@H](C)[C@@]2(O)[C@@H](C=C(CO)C[C@]3(O)C(=O)C(C)=C[C@@H]23)[C@@H]2C(C)(C)[C@]12OC(C)=O [TPA],basal promoter activity,RO6 HER2 promoter [2],decreased basal promoter activity
same,basal promoter activity,RO6 HER2 promoter [3],no significant effect on basal promoter activity
C[C@@H]1C[C@@H]([C@H](O)CC2CC(=O)NC(=O)C2)C(=O)[C@@H](C)C1 [cycloheximide],effect on TSA induced ErbB2 transcript decay,ErbB2 transcript; BT-474 or MDA-453 cells (data not shown),no ability to arrest TSA induced ErbB2 transcript decay
same,ErbB2 transcript levels in control cells,"ErbB2 transcript; SKBR3 cells, 50 μg/ml",no effect on ErbB2 transcript levels in control cells
same,effect on TSA induced accelerated ErbB2 mRNA degradation,"ErbB2 transcript; SKBR3 cells, 50 μg/ml",completely inhibited the accelerated ErbB2 mRNA degradation induced by TSA
CCCC(=O)[O-].[Na+] [sodium butyrate],ErbB2 promoter-reporter (luciferase) activity,ErbB2 promoter,significantly represses
same,ErbB2 transcript levels,ErbB2 transcript; 3 mM × 24 hours (data not shown),Virtually complete elimination of ErbB2 transcript levels
